Article PMC5855875, “Teixobactin analogues reveal enduracididine to be non-essential for highly potent antibacterial activity and lipid II binding” (Chemical Science, 2017)
Values after ≈ are worked out from the molar mass of the structure shown. Bridge positions count the residues as written; N and C are the ends. Square brackets hold non-standard residues; d marks the D form. Peptide text beside a SMILES is read from it. d(aIle) = CC[C@H](C)[C@@H](N)C(=O)O; dNMeF = CN[C@H](Cc1ccccc1)C(=O)O

Assays:
MRSA ATCC 33591 = test: microbe, parasite or virus in culture; conditions: ATCC 33591, 24 h
[1] = Lipid II TLC binding assay; conditions: peptide : lipid II 2 : 1; 50 mM Tris/HCl, pH 7.5, 30 min, room temperature; three independent experiments
Protocol: X. Complex formation of teixobactin with lipid II and geranyl pyrophosphate Complex formation of teixobactin analogues 8 (Ala10-teixobactin) and 16 (Arg10-teixobactin) with lipid II and geranyl pyrophosphate was performed using TLC as described previously.7 Binding of teixobactin to lipid II and geranyl pyrophosphate was analysed by incubating 30 µL of 2 nmol of each precursor with 2 or 4 nmoles of teixobactin in 50 mM Tris/HCl, pH 7.5, for 30 min at room temperature. Complex formation was analysed by extracting unbound precursors from the reaction mixture with 30 µL n- butanol/6M pyridine acetate (pH 4.2) (2:1; vol/vol) followed by TLC analysis of the organic layer using chloroform/methanol/water/ammonia (88:48:10:1, v/v/v/v) as the solvent and detection of lipid/phosphate containing precursors by phosphomolybdic acid staining. The TLC figures represent the results obtained through thr ee independent experiments.
Figure S76 : Binding of teixobactin analogues 8 (Ala10-teixobactin ) and 16 (Arg10-teixobactin) with lipid II using the protocols described in literature .7 Partial binding is observed when the ratio of lipid II to the analogue is 1:1 (indicated by lighter spots on the TLC) and complete binding is observed when the ratio of lipid II to the analogue is 1:2 in case of analogue 16 and 1:4 in case of analogue 8 (indicated […]
(also on this page, place not known: polyso rbate vancomycin , concentr ation 80 . wer e µ l (10 1-105 10 10 previously n - TL C three S76: (Ala10-teixobactin) literature.7 Lipid II Lipid II: Compound 8 = 1:1 Lipid II: Compound 16 = 1:1 Lipid II: Compound 8 = 1:2 Lipid II: Compound 16 = 1:2 Lipid II: Compound 8 = 1:4)

M. smegmatis ATCC 607 = test: microbe, parasite or virus in culture; conditions: ATCC 607, 72 h
Protocol: were grown in Mueller Hinton broth (Oxoid) in triplicate. All incubations were at 37°C. Dilutions were carried out in triplicate. 100 µl of autoclaved Mueller Hinton broth was added to wells 2-12 in a 96-well plate. 200 µl of the peptide was added to well one at a concentration of 256 µg/mL. 100µl of peptide in well one was taken up and pipetted into well two. The mixture was then mixed via pipetting before 100µl was taken up and pipetted into well three. This process was repeated up to well 11. Once […]
peptide present. Thus, the concentrations (in µg/mL) were: 256, 128, 64, 32, 16, 8, 4, 2, 1, 0.5, 0.25 and no peptide present. Each well was then inoculated with 100µl of bacteria that had been diluted to an […]
This was repeated three times. The 96-well plates were then incubated at 37°C for 24 hours. The MIC was determined to be the lowest concentration at which there was no growth visible. […]
was repeated at an altered initial concentration of 64 µg/ml. Therefore, the new concentrations for MIC […]
Middlebrook 7H9 broth (SIGMA) supplemented to 5% Middlebrook ADC (SIGMA) growth

[2] = test system: MRSA 2: MRSA DR 42412 (sputum); test: microbe, parasite or virus in culture
Protocol: (§1) VIII. MIC testing (extended panel)
(§2) Bacterial cultures were grown overnight i n Mueller-Hinton Agar (MHA) plates and adjusted to a final concentration of 10 5 – 106 CFU/ml. 100 µl of inoculum in Meuller -Hinton broth (MHB) was mixed with equal volume of peptides (dissolved in MHB) at 2x their concentration in a 96 well plate. In parallel experiments, MIC values were determined in the media containing polysorbate 80 (0 .002%, v/v) to […]
(§3) prevent non-specific adsorption of the peptides to plastic surfaces. The final peptides concentrations […]
(§4) Positive and negative controls contained 200 µl of inoculum without any peptide dissolved in broth, respectively. The 96 well plates were then incubated at 37 °C for 24 h. […]
(§5) 80. Strain information: MRSA 1: MRSA ATCC 700699, MRSA 2: MRSA DR 42412 (sputum), MRSA
(§6) 3: MRSA DM21455 (eye). […] Staphylococcus aureus ATCC

VRE 2: VRE ATCC 29212 = test: organism not typed
Protocol: as §1, §2, §3, §4, §5, §6

VRE 1: VRE ATCC 700802 = test: organism not typed
Protocol: as §1, §2, §3, §4, §5, §6

[3] = 1H DOSY at each titration point
[4] = test system: MRSA 3: MRSA DM21455 (eye); test: microbe, parasite or virus in culture
Protocol: as §1, §2, §3
(§7) Positive and negative controls contained 200 µl of inoculum without any peptide dissolved in broth, respectively. The 96 well plates were then incubated at 37 °C for 24 h.
(§8) All the experiments were performed in two independent duplicates and the MIC was determined as the […]
(§9) Minimum bactericidal concentration
(§10) The lowest concentration in which no visible colonies could be detected was taken as the MBC.
as §5, §6

[5] = test system: Staphylococcus aureus ATCC 29213; test: microbe, parasite or virus in culture
Protocol: as §1, §2, §3, §7, §8, §9, §10, §5, §6

MRSA 1: MRSA ATCC 700699 = test: microbe, parasite or virus in culture
Protocol: as §1, §2, §3, §7, §8, §9, §10, §5, §6

[6] = NMR titration with geranyl pyrophosphate (lipid II mimic); format: binding
Protocol: In order to evaluate target binding, we have performed the lipid II TLC binding assay[2] with Ala10-teixobactin. This assay provides qualitative binding data of Ala10-teixobactin with lipid II. […] Therefore, in order better understand the target binding of teixobactin analogues in a quantitative manner, extensive NMR studies (Fig. 6) on Ala10-teixobactin and geranyl pyrophosphate were performed.
This can occur due to intermediate exchange on the NMR time-scale, and therefore cooperative binding is not an obvious choice.

**Q.** For `CC[C@H](C)[C@H](NC(=O)[C@@H](Cc1ccccc1)NC)C(=O)N[C@@H](CO)C(=O)N[C@H](CCC(N)=O)C(=O)N[C@@H](C(=O)N[C@H](C(=O)N[C@@H](CO)C(=O)N[C@H]1C(=O)N[C@@H](C)C(=O)N[C@@H](C)C(=O)N[C@@H]([C@@H](C)CC)C(=O)O[C@H]1C)[C@@H](C)CC)[C@@H](C)CC` [Compound 8, Ala10-teixobactin] (H-[dNMeF]IS[dQ][d(aIle)]IS[dT]AAI; ester 8-C), which MIC (MRSA ATCC 33591) is on record?
**A.** 1–2 μg mL^–1

**Q.** What about the “lipid II spot on TLC” value [1] of the same compound?
**A.** a small amount of lipid II was still visible on TLC

**Q.** What about the MIC (M. smegmatis ATCC 607) of the same compound?
**A.** 1–2 μg mL^–1

**Q.** What about the MIC ([2]; 2: DR 42412 (sputum, 24 h)) of the same compound?
**A.** 1 μg mL^–1

**Q.** And the “MIC (without polysorbate 80)” value ([2]; 2: DR 42412 (sputum, 24 h))?
**A.** 4 µg/mL (≈ 3.45 µM)

**Q.** What about the MBC ([2]; MRSA 2 (MRSA DR 42412), plated on MHA, 37 °C, 24 h) of the same compound?
**A.** 4 μg mL^–1

**Q.** What about the “MIC (with polysorbate 80)” value ([2]; MRSA 2, MHB containing polysorbate 80 (0.002%, v/v), 37 °C, 24 h) of the same compound?
**A.** 1 µg/mL (≈ 0.863 µM)

**Q.** What about the MIC (VRE 2: VRE ATCC 29212; ATCC 29212, 24 h) of the same compound?
**A.** 4 μg mL^–1

**Q.** What about the “MIC (without polysorbate 80)” value (VRE 2: VRE ATCC 29212; ATCC 29212, 24 h) of the same compound?
**A.** 8 µg/mL (≈ 6.9 µM)

**Q.** What about the “MIC (with polysorbate 80)” value (VRE 2: VRE ATCC 29212; VRE 2, MHB containing polysorbate 80 (0.002%, v/v), 37 °C, 24 h) of the same compound?
**A.** 4 µg/mL (≈ 3.45 µM)

**Q.** And the MIC (VRE 1: VRE ATCC 700802; ATCC 700802, 24 h)?
**A.** 4 μg mL^–1

**Q.** And the “MIC (without polysorbate 80)” value (VRE 1: VRE ATCC 700802; ATCC 700802, 24 h)?
**A.** 8 µg/mL (≈ 6.9 µM)

**Q.** What about the “MIC (with polysorbate 80)” value (VRE 1: VRE ATCC 700802; VRE 1, MHB containing polysorbate 80 (0.002%, v/v), 37 °C, 24 h) of the same compound?
**A.** 4 µg/mL (≈ 3.45 µM)

**Q.** And the “aggregation in presence of geranyl pyrophosphate (diffusion coefficient)” value [3]?
**A.** no aggregation occurred

**Q.** And the MIC ([4]; 3: DM21455 (eye, 24 h))?
**A.** 1 μg mL^–1

**Q.** And the “MIC (without polysorbate 80)” value ([4]; 3: DM21455 (eye, 24 h))?
**A.** 4 µg/mL (≈ 3.45 µM)

**Q.** And the MBC ([4]; MRSA 3 (MRSA DM21455), plated on MHA, 37 °C, 24 h)?
**A.** 2 μg mL^–1

**Q.** And the “MIC (with polysorbate 80)” value ([4]; MRSA 3, MHB containing polysorbate 80 (0.002%, v/v), 37 °C, 24 h)?
**A.** 1 µg/mL (≈ 0.863 µM)

**Q.** And the “MIC (without polysorbate 80)” value ([5]; ATCC 29213, 24 h)?
**A.** 4 µg/mL (≈ 3.45 µM)

**Q.** And the “MIC (with polysorbate 80)” value ([5]; S. aureus ATCC 29213, MHB containing polysorbate 80 (0.002%, v/v), 37 °C, 24 h)?
**A.** 1 µg/mL (≈ 0.863 µM)

**Q.** What about the MBC ([5]; Staphylococcus aureus ATCC 29213, plated on MHA, 37 °C, 24 h) of the same compound?
**A.** 2 μg mL^–1

**Q.** What about the MIC (MRSA 1: MRSA ATCC 700699; ATCC 700699, 24 h) of the same compound?
**A.** 4 μg mL^–1

**Q.** What about the “MIC (without polysorbate 80)” value (MRSA 1: MRSA ATCC 700699; ATCC 700699, 24 h) of the same compound?
**A.** 8 µg/mL (≈ 6.9 µM)

**Q.** And the MBC (MRSA 1: MRSA ATCC 700699; MRSA 1 (MRSA ATCC 700699), plated on MHA, 37 °C, 24 h)?
**A.** 16 μg mL^–1

**Q.** What about the “MIC (with polysorbate 80)” value (MRSA 1: MRSA ATCC 700699; MRSA 1, MHB containing polysorbate 80 (0.002%, v/v), 37 °C, 24 h, two independent duplicates) of the same compound?
**A.** 4 µg/mL (≈ 3.45 µM)

**Q.** And the Kd ([6]; 2 Ile Hα, NMR titration of geranyl pyrophosphate)?
**A.** 348 ± 18 µM

**Q.** And the Kd ([6]; 3 Ser Hα, NMR titration of geranyl pyrophosphate)?
**A.** 503 ± 8 µM

**Q.** And the Kd ([6]; 4 D-Gln Hα, NMR titration of geranyl pyrophosphate)?
**A.** 507 ± 2 µM

**Q.** And the Kd ([6]; 5 D-Ile Hα, NMR titration of geranyl pyrophosphate)?
**A.** 483 ± 4 µM

**Q.** And the Kd ([6]; 7 Ser Hα, NMR titration of geranyl pyrophosphate)?
**A.** 125 ± 3 µM

**Q.** What about the Kd ([6]; 8 D-Thr Hα, NMR titration of geranyl pyrophosphate) of the same compound?
**A.** 204 ± 3 µM

**Q.** What about the Kd ([6]; 9 Ala Hα, NMR titration of geranyl pyrophosphate) of the same compound?
**A.** 394 ± 4 µM

**Q.** What about the Kd ([6]; 10 Ala Hα, NMR titration of geranyl pyrophosphate) of the same compound?
**A.** 314 ± 3 µM

**Q.** What about the Kd ([6]; 11 Ile Hα, NMR titration of geranyl pyrophosphate) of the same compound?
**A.** 391 ± 4 µM

**Q.** And the Kd ([6]; Net (Total), overall binding by PCA)?
**A.** 138 ± 5 µM
